{"source": "patent US10208007B2", "about": "“Use of strigolactones and strigolactone analogs for treating proliferative conditions” (The State of Israel, Ministry of Agriculture & Rural …, priority 2011, dated 2019)", "format_in_all_cases": "cell-based, human", "key": {"[1]": {"tested_on": "HCT116 cells", "assay": "Annexin V / PI staining", "settings": "48 hours, from 3.6%", "experimental": "Cells were cultured for 48 hours under the same conditions as those used for the DNA content/cell cycle analysis. All the cells were collected and resuspended in 100 μl 1× Annexin V Binding Buffer (BD Biosciences, San Jose, Calif., USA). 2 μl FITC-Annexin V (BD Biosciences) was added and incubated for 10 min in the dark (room temperature). Cells were then stained with PI (Sigma, Saint Louis, Mo., USA) to a final concentration of 5 μg/ml and the cells were incubated at room temperature for 15 min in the dark. Then, 400 μl of Annexin V binding buffer were added and flow cytometry was performed using a BD FACSCalibur flow cytometer. Cells were considered to be apoptotic if they were Annexin V+/PI− (early apoptotic) and Annexin V+/PI+ (late apoptotic). Each analysis was performed using at least 20,000 events.\nChromosome condensation at mitosis is accompanied by phosphorylation of histone H3. Accordingly, in order to determine if cells were arresting at G2 or M phase, HCT116 cells were analyzed for pS10 Histone H3 following strigolactone analogs exposure. […] To further quantify whether the growth inhibition observed in-vitro following strigolactone treatment was due in part to apoptosis, HCT116 cells were dual stained with Annexin V and PI (Prodidium Iodide). Annexin V staining indicate the inversion of the inner leaflet of the plasma membrane an early event of apoptosis. Late apoptosis is characterized by loss of membrane integrity and cells become permeable to PI. […] Cells were incubated for 48 hours and then co-stained with annexin-V and PI (FIG. 12F). Following treatment with 10 ppm and 15 ppm MEB-55, the percentage of late apoptotic cell increased from 3.6% to 62% and 85% respectively (FIG. 12F, lower panel). […] Dual Annexin V/PI staining analysis was also carried out on two other colon cancer cell lines, (SW480, HT29) following strigolactone treatment. Increased apoptosis was also observed in these lines following MEB-55 treatment in a dose dependent manner (FIG. 12D)."}, "[2]": {"tested_on": "MDA-MB-231 mammospheres", "assay": "Mammosphere formation", "experimental": "Adherent cells were gently trypsinized, (0.05% trypsin/EDTA) washed twice in PBS and filtered through a […] cell sieve to obtain a single cell suspensions. Cells were diluted to a concentration of 10,000 cell/ml in serum-free phenol-red free MEBM (MEGM Bulletkit, Lonza) supplemented with 5 μg/ml bovine insulin, 20 ng/ml recombinant epidermal growth factor, 20 ng/ml basic fibroblast growth factor (Gibco), 1×B27 supplement, 0.5 μg/ml hydrocortisone (MEGM Bulletkit, Lonza). For MDA-MB-231 mammosphere cultures serum-free phenol red-free CnT-27 medium with growth additives (CellnTEC Advanced cell systems, Bern, Switzerland) was used as previously described. 0.1 ml was seeded per well of a Ultralow attachment 96 well plates. The following day the indicated doses of GR-24 (ppm) or vehicle alone (0.6% acetone f/c) were added. Media was replenished every 3-4 days. Self-renewal capacity of the mammospheres was determined by re-plating and producing further generations of mammospheres. Secondary mammospheres were cultivated by dissociation (trypsinization with gently vortexing) of 10-14 day old primary mammospheres. Single cell suspensions were obtained as described above."}, "[3]": {"tested_on": "pP38", "assay": "Immunoblot with densitometric quantification", "experimental": "Protein concentration was determined using the BCA Protein Assay (Pierce), and 20-50 μg of lysate were separated in a 4-12% SDS-PAGE gel. After transfer, membranes were blocked for 15-30 min at room temperature in 5% BSA (Sigma) in Tris-buffered saline containing 0.1% Tween-20. Primary antibody was incubated for either 1.5 hours at room temperature or overnight at 4° C. Secondary antibody was incubated for 30-45 min at room temperature, and proteins were visualized with West Pico Stable (Pierce). […]\nDensitometric quantifications were carried out using ImageJ software (NIMH).\nTo investigate the signaling mechanisms elicited by strigolactone analogs in cancer cells, MDA-MB-231, DU145 and HCT116 cells were treated with strigolactone analogs for 1, 4 or 8 hours and lysates were analyzed by immuno-blotting. […]\nImmunoblot analysis of MDA-MB-231 and HCT116 cells treated with strigolactone analogs was performed. […] At 4 hours and 8 hours, pP38 levels increased 5 fold and 13 fold respectively following ST-362 treatment compared to vehicle controls (FIG. 13B—a bar graph showing densitometric quantification of pP38 levels as shown in FIG. 13A). […]"}}}
{"molecule": "CC1=CC(O/C=C2\\Cc3c(n(C)c4cc(-c5cccs5)ccc34)C2=O)OC1=O", "note": "(racemic) [MEB-55, (±) 2E-4-methyl-2-(4-methyl-5-oxo-2,5-dihydrofuran-2-yloxymethylene)-6-thiophen-2-yl-1,4-dihydro-2H-cyclopenta[b]indol-3-one]", "values": [{"measurement": "Percentage of late apoptotic cells (Annexin V+/PI+)", "setting": "[1]; 10 ppm", "result": 62, "unit": "%"}, {"measurement": "Percentage of late apoptotic cells (Annexin V+/PI+)", "setting": "[1]; 15 ppm", "result": 85, "unit": "%"}]}
{"molecule": "CC1=C[C@H](O/C=C2/C(=O)O[C@@H]3c4ccccc4C[C@H]23)OC1=O", "note": "(relative stereo) [GR-24, (3aR*,8bS*,E)-3-(((R*)-4-methyl-5-oxo-2,5-dihydrofuran-2-yloxy)methylene)-3,3a,4,8b-tetrahydro-2H-indeno[1,2-b]furan-2-one]", "values": [{"measurement": "Mammosphere growth", "setting": "[2]; 2.5 ppm", "result": "severely attenuated"}, {"measurement": "Mammosphere formation", "setting": "[2]; 5 ppm", "result": "completely blocked"}, {"measurement": "Concentration to block mammosphere formation, fold lower than IC50 dose for monolayer growth", "setting": "[2]; MDA-MB-231", "result": 2.7, "unit": "fold"}]}
{"molecule": "CC1=CC(O/C=C2/C(=O)c3c(c4cc(-c5scc6c5OCCO6)ccc4n3C)C2C)OC1=O", "note": "(stereo not shown) [ST-362, (2E)-2-[(2,5-dihydro-4-methyl-5-oxofuran-2-yloxy)methylene]-1,2-dihydro-7-(2,3-dihydrothieno[3,4-b][1,4]dioxin-7-yl)-1,4-dimethyl-cyclopenta[b]indole-3-(4H)-one]", "values": [{"measurement": "pP38 levels increase compared to vehicle controls", "setting": "[3]; MDA-MB-231, 4 hours", "result": 5, "unit": "fold"}, {"measurement": "pP38 levels increase compared to vehicle controls", "setting": "[3]; MDA-MB-231, 8 hours", "result": 13, "unit": "fold"}]}
